The source of these data is patent US9539260B2, “Dihydro-benzo-oxazine and dihydro-pyrido-oxazine derivatives” (Novartis AG, priority 2012, dated 2017).

One test deals with PI3K delta (Homo sapiens (Human), UniProt O00329). The test is described as follows: Enzymatic PI3K delta isoform inhibition (lipid kinase activity, Kinase-Glo luminescence). It is filed as biochemical. The following applies: Enzymatic assay. The protocol: (§1) 1.1 Test of Lipid Kinase Activity […]
(§2) In a more preferred assay, the kinase reaction is performed in a final volume of 10 μl per well of a low volume non-binding CORNING, 384 well black plate (Cat. No. #3676). The final concentrations of ATP and phosphatidyl inositol (PI) in the assay are 1 μM and 10 μg/mL, respectively. The reaction is started by the addition of ATP.
(§3) The components of the assay are added per well as follows:
(§4) The Z′ value is a universal measurement of the robustness of an assay. A Z′ between 0.5 and 1.0 is considered an excellent assay.
(§5) IC50 is determined by a four parameter curve fitting routine that comes along with “excel fit”. A four parameter logistic equation is used to calculate IC50 values (IDBS XLfit) of the percentage inhibition of each compound at 8 concentrations (usually 10, 3.0, 1.0, 0.3, 0.1, 0.030, 0.010 and 0.003 μM). Alternatively, IC50 values are calculated using idbsXLfit model 204, which is a 4 parameter logistic model.
(§6) Yet alternatively, for an ATP depletion assay, compounds of the formula I to be tested are dissolved in DMSO and directly distributed into a white 384-well plate at 0.5 μl per well. To start the reaction, 10 μl of 10 nM PI3 kinase and 5 μg/mL 1-alpha-phosphatidylinositol (PI) are added into each well followed by 10 μl of 2 μM ATP. The reaction is performed until approx 50% of the ATP is depleted, and then stopped by the addition of 20 μl of Kinase-Glo solution (Promega Corp., Madison, Wis., USA). The stopped reaction is incubated for 5 minutes and the remaining ATP is then detected via luminescence. IC50 values are then determined.
Background: Kinase-Glo measures the ATP left after a reaction by luminescence.

The target in another test is PI3K alpha (Homo sapiens (Human), UniProt P42336). The test can be described thus: Enzymatic PI3K alpha isoform inhibition (lipid kinase activity, Kinase-Glo luminescence). It is filed as biochemical. Particulars: Enzymatic assay. The procedure:
as §1, §2, §3, §4, §5, §6

PI3K delta, sequence (O00329 other isoform, or with tags, fused parts or gaps linker GGGGGG): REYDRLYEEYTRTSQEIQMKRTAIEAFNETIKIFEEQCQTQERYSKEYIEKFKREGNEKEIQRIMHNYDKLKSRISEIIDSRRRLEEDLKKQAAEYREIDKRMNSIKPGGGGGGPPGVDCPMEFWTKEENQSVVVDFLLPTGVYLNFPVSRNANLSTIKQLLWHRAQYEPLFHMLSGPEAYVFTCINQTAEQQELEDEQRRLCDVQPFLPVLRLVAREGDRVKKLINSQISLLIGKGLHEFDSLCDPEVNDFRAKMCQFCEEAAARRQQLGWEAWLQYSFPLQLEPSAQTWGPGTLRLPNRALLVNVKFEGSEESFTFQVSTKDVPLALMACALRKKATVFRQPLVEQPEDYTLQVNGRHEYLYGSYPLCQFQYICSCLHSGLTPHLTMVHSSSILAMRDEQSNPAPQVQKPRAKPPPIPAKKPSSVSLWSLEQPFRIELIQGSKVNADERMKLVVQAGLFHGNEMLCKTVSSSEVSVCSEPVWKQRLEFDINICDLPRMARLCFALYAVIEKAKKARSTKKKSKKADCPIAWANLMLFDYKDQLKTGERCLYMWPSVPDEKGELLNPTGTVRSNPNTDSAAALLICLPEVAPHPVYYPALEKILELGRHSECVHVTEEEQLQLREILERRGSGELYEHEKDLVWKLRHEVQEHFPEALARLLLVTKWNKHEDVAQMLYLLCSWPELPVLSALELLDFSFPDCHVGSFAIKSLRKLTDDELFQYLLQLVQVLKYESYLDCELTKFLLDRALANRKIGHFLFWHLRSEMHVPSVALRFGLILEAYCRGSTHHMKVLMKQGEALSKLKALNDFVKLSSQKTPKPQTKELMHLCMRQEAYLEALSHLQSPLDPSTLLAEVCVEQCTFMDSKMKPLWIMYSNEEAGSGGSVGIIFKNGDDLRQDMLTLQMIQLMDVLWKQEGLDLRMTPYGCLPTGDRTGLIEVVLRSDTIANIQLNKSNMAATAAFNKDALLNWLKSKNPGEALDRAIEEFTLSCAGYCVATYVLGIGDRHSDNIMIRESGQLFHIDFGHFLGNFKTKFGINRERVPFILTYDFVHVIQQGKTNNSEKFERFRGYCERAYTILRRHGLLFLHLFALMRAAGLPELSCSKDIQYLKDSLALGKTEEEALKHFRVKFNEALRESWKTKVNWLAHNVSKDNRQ
PI3K alpha, sequence (P42336 other isoform, or with tags, fused parts or gaps): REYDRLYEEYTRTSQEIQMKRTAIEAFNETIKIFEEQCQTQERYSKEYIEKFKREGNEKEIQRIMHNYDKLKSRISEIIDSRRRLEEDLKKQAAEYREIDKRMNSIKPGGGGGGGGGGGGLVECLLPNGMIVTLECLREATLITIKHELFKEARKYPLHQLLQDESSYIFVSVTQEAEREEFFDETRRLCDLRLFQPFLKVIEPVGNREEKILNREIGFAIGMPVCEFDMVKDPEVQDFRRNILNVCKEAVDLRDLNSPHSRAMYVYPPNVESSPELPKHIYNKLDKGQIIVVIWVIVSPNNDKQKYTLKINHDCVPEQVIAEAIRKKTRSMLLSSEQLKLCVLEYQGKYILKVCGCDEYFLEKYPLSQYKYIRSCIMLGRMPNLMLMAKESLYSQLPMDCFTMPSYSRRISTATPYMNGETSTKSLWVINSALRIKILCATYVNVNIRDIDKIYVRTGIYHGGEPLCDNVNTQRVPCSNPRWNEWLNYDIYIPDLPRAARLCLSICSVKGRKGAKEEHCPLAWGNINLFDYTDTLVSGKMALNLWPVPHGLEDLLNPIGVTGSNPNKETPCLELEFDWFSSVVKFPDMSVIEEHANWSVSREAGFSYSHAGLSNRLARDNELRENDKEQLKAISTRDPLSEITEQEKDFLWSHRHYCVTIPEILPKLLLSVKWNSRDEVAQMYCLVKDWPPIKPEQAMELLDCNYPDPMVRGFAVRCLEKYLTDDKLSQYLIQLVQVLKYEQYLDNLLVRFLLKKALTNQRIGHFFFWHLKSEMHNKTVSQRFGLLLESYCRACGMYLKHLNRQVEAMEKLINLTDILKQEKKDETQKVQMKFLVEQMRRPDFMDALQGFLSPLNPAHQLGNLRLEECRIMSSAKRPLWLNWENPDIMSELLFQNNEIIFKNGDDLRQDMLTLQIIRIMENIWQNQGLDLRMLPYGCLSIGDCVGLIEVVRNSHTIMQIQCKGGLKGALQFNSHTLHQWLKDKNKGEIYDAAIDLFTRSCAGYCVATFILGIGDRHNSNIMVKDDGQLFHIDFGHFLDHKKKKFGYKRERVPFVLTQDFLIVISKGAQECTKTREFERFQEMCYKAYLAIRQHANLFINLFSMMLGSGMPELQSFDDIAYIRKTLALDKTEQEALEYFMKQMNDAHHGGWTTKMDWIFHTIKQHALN

For `CCC(=O)N1CC[C@H](Oc2ccc3c(c2)N(c2cncc(C#N)c2)CCO3)C1` [Example A32, 5-[6-((S)-1-Propionyl-pyrrolidin-3-yloxy)-2,3-dihydro-benzo[1,4]oxazin-4-yl]-nicotinonitrile], the figures for the IC50 on PI3K delta and on PI3K alpha were 74 nM and 3200 nM, respectively.
Turning to `COc1cncc(N2CCOc3ccc(O[C@H]4CCN(C(=O)C5CCOCC5)C4)cc32)c1` [Example A33, {(S)-3-[4-(5-Methoxy-pyridin-3-yl)-3,4-dihydro-2H-benzo[1,4]oxazin-6-yloxy]-pyrrolidin-1-yl}-(tetrahydro-pyran-4-yl)-methanone], the results for the IC50 on PI3K delta and against PI3K alpha were 85 nM and 1700 nM, respectively.
Turning to `O=C(C1CCOCC1)N1CC[C@H](Oc2ccc3c(c2)N(c2cncc(Cl)c2)CCO3)C1` [Example A34, {(S)-3-[4-(5-Chloro-pyridin-3-yl)-3,4-dihydro-2H-benzo[1,4]oxazin-6-yloxy]-pyrrolidin-1-yl}-(tetrahydro-pyran-4-yl)-methanone], the results for the 50% inhibitory concentration (IC50) against PI3K delta and at PI3K alpha were 9 nM and 773 nM, respectively.
As to `CCC(=O)N1CC[C@H](Oc2ccc3c(c2)N(c2ccc(OC)c(OC)c2)CCO3)C1` [Example A35, 1-{(S)-3-[4-(3,4-Dimethoxy-phenyl)-3,4-dihydro-2H-benzo[1,4]oxazin-6-yloxy]-pyrrolidin-1-yl}-propan-1-one], the IC50 – broadly, the concentration that inhibits the measured activity by half – is 1420 nM against PI3K delta and 5590 nM against PI3K alpha.
As for `CCC(=O)N1CC[C@H](Oc2ccc3c(c2)N(c2cnc4ccccc4c2)CCO3)C1` [Example A36, 1-[(S)-3-(4-Quinolin-3-yl-3,4-dihydro-2H-benzo[1,4]oxazin-6-yloxy)-pyrrolidin-1-yl]-propan-1-one], the IC50 against PI3K delta amounted to 78 nM; on PI3K alpha, 1270 nM.
As for `CCC(=O)N1CC[C@H](Oc2ccc3c(c2)N(c2cncc(S(C)(=O)=O)c2)CCO3)C1` [Example A37, 1-{(S)-3-[4-(5-Methanesulfonyl-pyridin-3-yl)-3,4-dihydro-2H-benzo[1,4]oxazin-6-yloxy]-pyrrolidin-1-yl}-propan-1-one], the results for the IC50 at PI3K delta and against PI3K alpha were 78 nM and 370 nM, respectively.
As for `CCC(=O)N1CC[C@H](Oc2ccc3c(c2)N(c2cncc(C(F)(F)F)c2)CCO3)C1` [Example A38, 1-{(S)-3-[4-(5-Trifluoromethyl-pyridin-3-yl)-3,4-dihydro-2H-benzo[1,4]oxazin-6-yloxy]-pyrrolidin-1-yl}-propan-1-one], the IC50 against PI3K delta amounted to 64 nM; on PI3K alpha, 343 nM.
For the compound `CCC(=O)N1CC[C@H](Oc2ccc3c(c2)N(c2cncc(S(=O)(=O)N(C)C)c2)CCO3)C1` [Example A39, 5-[6-((S)-1-Propionyl-pyrrolidin-3-yloxy)-2,3-dihydro-benzo[1,4]oxazin-4-yl]-pyridine-3-sulfonic acid dimethylamide], the IC50 amounted to 9 nM against PI3K delta and 71 nM at PI3K alpha.
As to `CCC(=O)N1CC[C@H](Oc2ccc3c(c2)N(c2ccc(C)c(C#N)c2)CCO3)C1` [Example A40, 2-Methyl-5-[6-((S)-1-propionyl-pyrrolidin-3-yloxy)-2,3-dihydro-benzo[1,4]oxazin-4-yl]-benzonitrile], the IC50 at PI3K delta was determined as 462 nM; against PI3K alpha, 5360 nM.
On to `CCC(=O)N1CC[C@H](Oc2ccc3c(c2)N(c2ccc(OC)c(C(F)(F)F)c2)CCO3)C1` [Example A41, 1-{(S)-3-[4-(4-Methoxy-3-trifluoromethyl-phenyl)-3,4-dihydro-2H-benzo[1,4]oxazin-6-yloxy]-pyrrolidin-1-yl}-propan-1-one], for which the values for the concentration for half-maximal inhibition (IC50) on PI3K delta and against PI3K alpha were 296 nM and 2790 nM, respectively.
On to `O=C(C1CCOCC1)N1CC[C@H](Oc2ccc3c(c2)N(c2ccc(C(F)(F)F)nc2)CCO3)C1` [Example A42, (Tetrahydro-pyran-4-yl)-{(S)-3-[4-(6-trifluoromethyl-pyridin-3-yl)-3,4-dihydro-2H-benzo[1,4]oxazin-6-yloxy]-pyrrolidin-1-yl}-methanone], for which the IC50 against PI3K delta is 30 nM; against PI3K alpha it was 1140 nM.
For the compound `CS(=O)(=O)c1ccc(N2CCOc3ccc(O[C@H]4CCN(C(=O)C5CCOCC5)C4)cc32)cn1` [Example A43, {(S)-3-[4-(6-Methanesulfonyl-pyridin-3-yl)-3,4-dihydro-2H-benzo[1,4]oxazin-6-yloxy]-pyrrolidin-1-yl}-(tetrahydro-pyran-4-yl)-methanone], the concentration for half-maximal inhibition (IC50) at PI3K delta was determined as 54 nM; at PI3K alpha, 4690 nM.
With `CCOc1ncc(N2CCOc3ccc(O[C@H]4CCN(C(=O)C5CCOCC5)C4)cc32)cc1C` [Example B2, {(S)-3-[4-(6-Ethoxy-5-methyl-pyridin-3-yl)-3,4dihydro-2H-benzo[1,4]oxazin-6-yloxy]-pyrrolidin-1-yl}-(tetrahydro-pyran-4-yl)-methanone], the IC50 against PI3K delta was 26 nM; on PI3K alpha it was 1640 nM.
Take `CCC(=O)N1CC[C@H](Oc2ccc3c(c2)N(c2cnc(OC)c(OC)c2)CCO3)C1` [Example B4, 1-{(S)-3-[4-(5,6-Dimethoxy-pyridin-3-yl)-3,4-dihydro-2H-benzo[1,4]oxazin-6-yloxy]-pyrrolidin-1-yl}-propan-1-one]: the IC50 came out at 83 nM on PI3K delta and 1230 nM on PI3K alpha.
In the case of `CCC(=O)N1CC[C@H](Oc2ccc3c(c2)N(c2cncc(S(=O)(=O)C(C)C)c2)CCO3)C1` [Example B5, 1-((S)-3-{4-[5-(Propane-2-sulfonyl)-pyridin-3-yl]-3,4-dihydro-2H-benzo[1,4]oxazin-6-yloxy}-pyrrolidin-1-yl)-propan-1-one], the IC50 came out at 25 nM at PI3K delta and 236 nM at PI3K alpha.
For `CC[S+]([O-])c1ccc(N2CCOc3ccc(O[C@H]4CCN(C(=O)C5CCOCC5)C4)cc32)cn1` (stereo partly drawn) [Example B7, {(S)-3-[4-(6-Ethanesulfinyl-pyridin-3-yl)-3,4-dihydro-2H-benzo[1,4]oxazin-6-yloxy]-pyrrolidin-1-yl}-(tetrahydro-pyran-4-yl)-methanone], in that order: 114 nM and 3540 nM.
`Cc1cc(N2CCOc3ccc(O[C@H]4CCN(C(=O)c5cn(C)cn5)C4)cc32)cnc1S(C)(=O)=O` [Example B8, {(S)-3-[4-(6-Methanesulfonyl-5-methyl-pyridin-3-yl)-3,4-dihydro-2H-benzo[1,4]oxazin-6-yloxy]-pyrrolidin-1-yl}-(1-methyl-1H-imidazol-4-yl)-methanone]: the figures for the IC50 against PI3K delta and at PI3K alpha were 25 nM and 188 nM, respectively.
`COc1cc(N2CCOc3ccc(O[C@H]4CCN(C(=O)C5CCOCC5)C4)cc32)cnc1S(C)(=O)=O` [Example B9, {(S)-3-[4-(6-Methanesulfonyl-5-methoxy-pyridin-3-yl)-3,4-dihydro-2H-benzo[1,4]oxazin-6-yloxy]-pyrrolidin-1-yl}-(tetrahydro-pyran-4-yl)-methanone]: the IC50 against PI3K delta amounted to 78 nM; against PI3K alpha it was 1770 nM.
For `COc1ncc(N2CCOc3ccc(O[C@H]4CCN(C(=O)C5CCS(=O)(=O)CC5)C4)cc32)cc1F` [Example B11, (1,1-Dioxo-hexahydro-1lambda*6*-thiopyran-4-yl)-{(S)-3-[4-(5-fluoro-6-methoxy-pyridin-3-yl)-3,4-dihydro-2H-benzo[1,4]oxazin-6-yloxy]-pyrrolidin-1-yl}-methanone], the figures for the IC50 against PI3K delta and at PI3K alpha were 14 nM and 823 nM, respectively.
